Source: patent US20130345215A1, “PYRAZOLOPYRIMIDONE AND PYRAZOLOPYRIDONE INHIBITORS OF TANKYRASE” (Genentech, Inc., priority 2012, published 2013)

Each compound was assayed against T1, tankyrase 2 (TNKS2) (Homo sapiens, UniProt Q9H2K2) (assay: μHTS-TNKS-IWR2 TR-FRET Binding Assay (Example 118), His6-TNKS2 substituted). Settings: procedure in Example 118 with His6-TNKS2.
T1 construct: His6-tankyrase 2 (construct: 934-1166) (His6-TNKS2)
Description: (§1) μHTS-TNKS-IWR2 TR-FRET Binding Assay (10 μL/well in BD1536-well plate, a single point)
(§2) Reagents and Stock Solutions
Tankyrase 1 (TNKS1): 184.3 μM=5.2 mg/mL His6-TNKS1, MW=28.2 KDa (construct: 1088-1327, 1266M) in 20 mM Tris pH 8, 150 mM NaCl, 10% glycerol, and 0.5 mM TCEP. Alternatively, His6-tankyrase 2 (construct: 934-1166) (His6-TNKS2) or His6-PARP1 (full length) can be substituted for His6-TNKS 1.
(§3) Biotin-4-((1S,2R,6S,7R)-3,5-Dioxo-4-aza-tricyclo[5.2.1.0*2,6]dec-8-en-4-yl)-N-(4-methyl-quinolin-8-yl)-benzamide (Biotin-IWR2): 10 mM Biotin-IWR2 stock in DMSO, stored at −20° C.
Positive control: 10 mM 2-(4-Trifluoromethyl-phenyl)-3,5,7,8-tetrahydro-thiopyrano[4,3-d]pyrimidin-4-one (XAV939) in DMSO, stored at −20° C.
APC-anti-His Ab: 8.50 μM SL-APC, 8.26 μM anti-6His antibody-SureLight APC (Columia Bioscience, Catalog Number D3-1711, Lot Number N01010-AAH04)
Assay plate: BD 1536-well, clear/black plate (Catalog Number 353255)
(§4) Assay buffer 1a (AB1a) for TNKS dilution: 50 mM Tris, pH 7.4, 100 mM sodium chloride solution, 1 mM magnesium chloride solution, 1 mM DL-dithiothreitol solution, 0.2 mg/mL bovine serum albumin solution, 0.025% NP-40.
(§5) Assay buffer 1b (AB1b) for Biotin-IWR2 dilution: 50 mM Tris, pH 7.4, 100 mM sodium chloride solution, 1 mM magnesium chloride solution, 1 mM DL-dithiothreitol solution, 0.2 mg/mL bovine serum albumin solution, 0.05% NP-40
(§6) Assay buffer 1c (AB1c) for compound dilution: 50 mM Tris, pH 7.4, 100 mM sodium chloride solution, 1 mM magnesium chloride solution, 1 mM DL-dithiothreitol solution, 0.2 mg/mL bovine serum albumin solution
(§7) Assay buffer 2 (AB2) for Eu/APC: 50 mM Tris, pH 7.4, 100 mM sodium chloride solution, 1 mM magnesium chloride solution, 0.2 mg/mL bovine serum albumin solution
(§8) Reagent Stock Solution Preparation
Prepare Biotinylated IWR2 stock solution (3.33× stock) for TOTL and compound wells: 200 nM Biotin-IWR2 in 5% DMSO/AB1b buffer
(§9) Prepare BLANK well stock solution: 5% DMSO/AB1b buffer
Prepare POSITIVE CONTROL well stock solution (3.33× stock): 200 nM XAV939 in 200 nM Biotin-IWR2/5% DMSO/AB1b buffer
(§10) Prepare TNKS 1 stock solution (5× stock): 300 nM TNKS in AB1a buffer. (Alternatively, use TNKS2 or PARP1 stock solutions.)
Prepare Eu/APC stock solution (5× stock): 3.5 nM Eu-SA/50 nM APC-His6Ab in AB2 buffer.
Add 25 μL/well 1.5% DMSO/AB1c buffer in each compound well to the compound concentration at 74 μM in 8.8% DMSO/AB1c buffer or in the 2 μL DMSO CONTROL wells (BLANK, TOTAL and POSITIVE wells) in the compound plate. Transfer 3 μL/well of above solution (solution 1,2,3) to an empty assay plate (BD1536-well plate) as follows: • TOTAL and cpd wells: Solution 1 (Biotin-IWR2): • BLANK wells: Solution 2 (No Biotin-IWR2): • POSITIVE CONTROL wells: Solution 3 (Biotin-IWR2+XAV939)
(§11) Transfer 3 μL/well of the above diluted compound solutions or compound dilution buffer to the above assay plate. Add 2 μL/well of 300 nM TNKS stock solution (4) to every well in the above assay plate. Centrifuge the assay plate at 2100 rpm for 2 min. Incubate the assay plate at 26° C. for 30 minutes. Add 2 μL/well 3.5 nMEu/50 nM APC solution (5) to every well in the above assay plate. Centrifuge the assay plate at 2100 rpm for 2 min. Incubate the assay plate at 26° C. for 60 min. Read the assay plate immediately at excitation wavelength of 330 nm and emission wavelength of 615 and 665 nM in time resolved fluorescence mode.
XAV939 (+ve control): 60 nM at ˜70% Inhibition
General Library compounds: 22.23 μM in 4% DMSO

T1 sequence (Q9H2K2 934-1166): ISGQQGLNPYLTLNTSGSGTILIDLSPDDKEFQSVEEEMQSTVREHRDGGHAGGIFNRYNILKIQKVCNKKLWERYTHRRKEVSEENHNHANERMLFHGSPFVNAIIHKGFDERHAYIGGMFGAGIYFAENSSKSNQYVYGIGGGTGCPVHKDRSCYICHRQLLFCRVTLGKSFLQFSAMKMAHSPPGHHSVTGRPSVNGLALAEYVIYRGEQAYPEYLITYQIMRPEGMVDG

IC50	SMILES
664 nM	O=c1[nH]c(N2CCC(c3ccc(F)cc3)CC2)nc2[nH]ncc12 [Compound I-9, 6-[4-(4-fluorophenyl)-1-piperidyl]-1 5-dihydropyrazolo[3 4-d]pyrimidin-4-one]
135 nM	CCOC(=O)c1ccc(N2CCN(c3nc4c(cnn4C)c(=O)[nH]3)CC2)cc1 [Compound I-41, ethyl 4-[4-(1-methyl-4-oxo-5H-pyrazolo[3 4-d]pyrimidin-6-yl)piperazin-1-yl]benzoate]
76.5 nM	Cn1ncc2c(=O)[nH]c(N3CCN(c4ccc(C#N)cc4F)CC3)nc21 [Compound I-28, 3-fluoro-4-[4-(1-methyl-4-oxo-5H-pyrazolo[3 4-d]pyrimidin-6-yl)piperazin-1-yl]benzonitrile]
47.1 nM	COCCOc1cc(F)c(F)c(N2CCN(c3nc4c(cnn4C)c(=O)[nH]3)CC2)c1 [Compound I-58]

Each compound was assayed on Wnt stimulated TCF transcriptional activity, HEK293-TS 112 TCF reporter cell line (assay: Tankyrase 1 Assay (Example 119): Wnt3A-stimulated TOPbrite TCF luciferase reporter). Settings: Compounds I-59 to I-144, procedure in Example 119 (0.5 ug/mL Wnt3A, 16 hours); read-out: TNKS1 (IC50).
Assay type: cell-based
Description: Inhibition of the Wnt stimulated TCF transcriptional activity by tankyrase inhibitors was determined utilizing a HEK293-TS 112 TCF reporter cell line. A Wnt-responsive luciferase reporter named TOPbrite was constructed by cloning the enhancer element of Super8xTOPFlash containing eight TCF/LEF binding sites into the pGL4.28 vector (Promega) upstream of the minimal promoter element, and selecting for hygromycin B resistance (50 μg/ml). Cells were seeded into 384-well plates in the presence of 0.5 ug/mL of Wnt3A at a density of 20,000 cells per well in 25 ul of F:12 DMEM media supplemented with 10% FBS and 2 mM Glutamax. Cells seeded without the addition of Wnt3A were used as background signal. Compounds of various concentrations were added to cells and incubated at 37 degrees with 5% CO2 for 16 hours. The assay was terminated with the addition of Promega Dual Glo kit per manufacturer's instructions. A ratio of TOPbrite Firefly Luciferase and SV40 Renillla Luciferase was calculated and the background from the neutral wells was subtracted yielding the final normalized measurement of TCF transcriptional activity. Compound IC50s were determined by four-parameter curve fitting using GeneData software.

SMILES	IC50
COCCOc1cc(F)c(N2CCN(c3nc4c(cnn4CCCO)c(=O)[nH]3)CC2)c(F)c1 [Compound I-95, 6-[4-[2 6-difluoro-4-(2-methoxyethoxy)phenyl]piperazin-1-yl]-1-(3-hydroxypropyl)-5H-pyrazolo[3 4-d]pyrimidin-4-one]	27 nM
Cn1ncc2c(=O)[nH]c(-c3ccc(S(=O)(=O)C4CCCCC4)cc3)nc21 [Compound I-125, 6-(4-cyclohexylsulfonylphenyl)-1-methyl-5H-pyrazolo[3 4-d]pyrimidin-4-one]	178 nM
Cn1ncc2c(=O)[nH]c(N3CCN(CC4CCCCC4)CC3)nc21 [Compound I-110, 6-[4-(cyclohexylmethyl)piperazin-1-yl]-1-methyl-5H-pyrazolo[3 4-d]pyrimidin-4-one]	80.9 nM
Cn1ncc2c(=O)[nH]c(N3CCN(c4c(F)cc(OCC5C[S+]([O-])C5)cc4F)CC3)nc21 (centres unmarked) [Compound I-72, 6-[4-[2 6-difluoro-4-[(1-oxothietan-3-yl)methoxy]phenyl]piperazin-1-yl]-1-methyl-5H-pyrazolo[3 4-d]pyrimidin-4-one]	8.6 nM
COCCOc1cc(F)c(N2CCN(c3nc4c(cnn4C4CCS(=O)(=O)CC4)c(=O)[nH]3)CC2)c(F)c1 [Compound I-128, 6-[4-[2 6-difluoro-4-(2-methoxyethoxy)phenyl]piperazin-1-yl]-1-(1 1-dioxothian-4-yl)-5H-pyrazolo[3 4-d]pyrimidin-4-one]	268 nM
COCCOc1cc(F)c(N2CCN(c3nc4c(cnn4CC(O)CO)c(=O)[nH]3)CC2)c(F)c1 (centres unmarked) [Compound I-113, 6-[4-[2 6-difluoro-4-(2-methoxyethoxy)phenyl]piperazin-1-yl]-1-(2 3-dihydroxypropyl)-5H-pyrazolo[3 4-d]pyrimidin-4-one]	90 nM
COCCOc1cc(F)c(C2(O)CCN(c3nc4c(cnn4C)c(=O)[nH]3)CC2)c(F)c1 [Compound I-83, 6-[4-[2 6-difluoro-4-(2-methoxyethoxy)phenyl]-4-hydroxy-1-piperidyl]-1-methyl-5H-pyrazolo[3 4-d]pyrimidin-4-one]	15.3 nM
Cn1ncc2c(=O)[nH]c(N3CCN(c4c(F)cc(OCCO)cc4F)CC3)nc21 [Compound I-78, 6-[4-[2 6-difluoro-4-(2-hydroxyethoxy)phenyl]piperazin-1-yl]-1-methyl-5H-pyrazolo[3 4-d]pyrimidin-4-one]	12 nM
Cn1ncc2c(=O)[nH]c(N3CCC(Cc4ccccn4)CC3)nc21 [Compound I-117, 1-methyl-6-[4-(2-pyridylmethyl)-1-piperidyl]-5H-pyrazolo[3 4-d]pyrimidin-4-one]	112 nM
Cn1ncc2c(=O)[nH]c(N3CCN(C4CCOCC4)CC3)nc21 [Compound I-130, 1-methyl-6-(4-tetrahydropyran-4-ylpiperazin-1-yl)-5H-pyrazolo[3 4-d]pyrimidin-4-one]	315 nM
Cn1cc(N2CCN(c3nc4c(cnn4C)c(=O)[nH]3)CC2)cn1 [Compound I-105, 1-methyl-6-[4-(1-methylpyrazol-4-yl)piperazin-1-yl]-5H-pyrazolo[3 4-d]pyrimidin-4-one]	63.9 nM
Cc1c[nH]nc1C1CCN(c2nc3c(cnn3C)c(=O)[nH]2)CC1 [Compound I-115, 1-methyl-6-[4-(4-methyl-1H-pyrazol-3-yl)-1-piperidyl]-5H-pyrazolo[3 4-d]pyrimidin-4-one]	107 nM
Cn1ncc2c(=O)[nH]c(N3CCN(c4c(F)cc(CO)cc4F)CC3)nc21 [Compound I-79, 6-[4-[2 6-difluoro-4-(hydroxymethyl)phenyl]piperazin-1-yl]-1-methyl-5H-pyrazolo[3 4-d]pyrimidin-4-one]	13.3 nM
Cn1ncc2c(=O)[nH]c(-c3ccc(S(C)(=O)=O)cn3)nc21 [Compound I-139, 1-methyl-6-(5-methylsulfonyl-2-pyridyl)-5H-pyrazolo[3 4-d]pyrimidin-4-one]	547 nM
COCCO[C@H]1CC[C@H](N2CCN(c3nc4c(cnn4C)c(=O)[nH]3)CC2)CC1 [Compound I-121, 6-[4-[4-(2-methoxyethoxy)cyclohexyl]piperazin-1-yl]-1-methyl-5H-pyrazolo[3 4-d]pyrimidin-4-one]	159 nM
Cn1ncc2c(=O)[nH]c(N3CCN(C4CCCCC4)CC3)nc21 [Compound I-118, 6-(4-cyclohexylpiperazin-1-yl)-1-methyl-5H-pyrazolo[3 4-d]pyrimidin-4-one]	122 nM

These compounds were tested against T2, Tankyrase 1 (TNKS1) (Homo sapiens, UniProt O95271) (assay: μHTS-TNKS-IWR2 TR-FRET Binding Assay (Example 118), His6-TNKS1). Settings: not given.
T2 construct: His6-TNKS1, MW=28.2 KDa (construct: 1088-1327, 1266M)
T2 sequence (O95271 1088-1327): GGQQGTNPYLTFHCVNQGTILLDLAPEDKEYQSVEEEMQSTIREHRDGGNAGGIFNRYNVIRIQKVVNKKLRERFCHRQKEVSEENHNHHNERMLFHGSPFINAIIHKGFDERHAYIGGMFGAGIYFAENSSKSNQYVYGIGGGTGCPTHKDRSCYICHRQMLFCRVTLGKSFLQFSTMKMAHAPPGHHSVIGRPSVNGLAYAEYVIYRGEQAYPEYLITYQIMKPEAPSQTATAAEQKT
Description: as §1, §2, §3
(XAV939) in DMSO, stored at −20° C.
as §4, §5, §6, §7, §8, §9, §10
Transfer 3 μL/well of above solution (solution 1,2,3) to an empty assay plate (BD1536-well plate) as follows: • TOTAL and cpd wells: Solution 1 (Biotin-IWR2): • BLANK wells: Solution 2 (No Biotin-IWR2): • POSITIVE CONTROL wells: Solution 3 (Biotin-IWR2+XAV939)
as §11, with “min.” for “min. Read the assay plate immediately at excitation wavelength of 330 nm and emission wavelength of 615 and 665 nM in time resolved fluorescence mode.”

IC50	SMILES
374 nM	O=c1[nH]c(N2CCC(c3ccc(F)cc3)CC2)nc2[nH]ncc12 [Compound I-9, 6-[4-(4-fluorophenyl)-1-piperidyl]-1 5-dihydropyrazolo[3 4-d]pyrimidin-4-one]
107 nM	CCOC(=O)c1ccc(N2CCN(c3nc4c(cnn4C)c(=O)[nH]3)CC2)cc1 [Compound I-41, ethyl 4-[4-(1-methyl-4-oxo-5H-pyrazolo[3 4-d]pyrimidin-6-yl)piperazin-1-yl]benzoate]
51 nM	Cn1ncc2c(=O)[nH]c(N3CCN(c4ccc(C#N)cc4F)CC3)nc21 [Compound I-28, 3-fluoro-4-[4-(1-methyl-4-oxo-5H-pyrazolo[3 4-d]pyrimidin-6-yl)piperazin-1-yl]benzonitrile]
